Molecular target: Complement factor D (Homo sapiens, UniProt P00746)
Test: Factor D Assay: Human factor D (purified from human serum, Complement Technology, Inc.) at 80 nM final concentration is incubated with test compound at various concentrations for 5 minutes at room temperature in 50 mM Tris, 1M NaCl, pH 7.5. A synthetic substrate Z-L-Lys-SBzl and DTNB (Ellman's reagent) are added to final concentrations of 100 μM each. The increase in color is recorded at OD405 nm in a microplate in kinetic mode over 30 minutes with 30 second time points in a spectrofluorimeter. IC50 values are calculated by non-linear regression from the percentage of inhibition of complement factor D activity as a function of test compound concentration.

Sequence of Complement factor D (P00746 whole entry): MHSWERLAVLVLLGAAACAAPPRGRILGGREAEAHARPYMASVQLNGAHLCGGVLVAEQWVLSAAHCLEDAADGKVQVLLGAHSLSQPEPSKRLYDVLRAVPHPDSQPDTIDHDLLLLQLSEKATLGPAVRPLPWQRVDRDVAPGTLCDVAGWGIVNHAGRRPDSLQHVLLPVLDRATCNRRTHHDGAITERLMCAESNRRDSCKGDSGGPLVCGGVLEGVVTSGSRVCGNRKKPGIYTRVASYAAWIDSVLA

| Structure (SMILES) | IC50 [nM] |
| --- | --- |
| NC(=O)c1nn(CC(=O)N2C[C@H](F)C[C@H]2C(=O)Nc2cccc(Cl)n2)c2ccc(-c3ccnnc3)cc12 | < 1000 |
| CC(=O)c1cn(CC(=O)N2C[C@H](F)C[C@H]2C(=O)Nc2cccc(Br)n2)c2ccc(-c3ccc(C)nn3)cc12 | < 1000 |
| CC(=O)c1cn(CC(=O)N2C[C@H](F)C[C@H]2C(=O)Nc2cccc(Cl)n2)c2ccc(-c3ccnnc3)cc12 | < 1000 |
